# Source: US12396459B2, “Synergistically effective herbicide composition comprising pyridate and at least one defined 4-HPPD inhibitor” (BELCHIM CROP PROTECTION NV, priority 2018, dated 2025)
# Assays:
# Type in all cases: in vivo
# Abutilon theophrasti = experiment: Field trial post-emergence in maize: ABUTH; details: 31-48 DAA; # = 2; g a.c./ha: PYR 300, MES 100, PYR + MES 300 + 90
# Procedure: (§1) Herbicidal activity of herbicide compositions according to the first aspect of the present invention with regard to different types of unwanted vegetation was determined during trials performed on test fields (field trials). Individual compositions comprising pyridate and individual compositions comprising a defined 4-HPPD inhibitor are compared with a herbicide composition according to the invention comprising both pyridate and a defined 4-HPPD inhibitor. The expected activity of the combination of the active compounds pyridate and a defined 4-HPPD inhibitor is calculated according to above mentioned calculation method by Colby, in order to evaluate a synergistic effect between pyridate and a defined 4-HPPD inhibitor.
# (§2) Herbicidal activity was determined by applying herbicide compositions on emerged unwanted vegetation on fields where maize was cultivated. Pyridate and a defined 4-HPPD inhibitor were applied as a tank mixture by mixing these active compounds prior to use in a spray tank. The corresponding mixture was in the form of a spray liquor. […] At a specified number of days after application (DAA), the degree of damage to the unwanted vegetation is rated in % of plants of unwanted vegetation that were killed, which was assessed by visually controlling the plants.
# Capsella bursa-pastoris = experiment: Field trial post-emergence in maize: CAPBP
# Procedure: as §1
# (§3) Herbicidal activity was determined by applying herbicide compositions on emerged unwanted vegetation on fields where maize was cultivated. Pyridate and a defined 4-HPPD inhibitor were applied as a tank mixture by mixing these active compounds prior to use in a spray tank. The corresponding mixture was in the form of a spray liquor. Besides, spray liquors of individual compositions comprising pyridate and of individual compositions comprising a defined 4-HPPD inhibitor were used. Test plants of unwanted vegetation with a growth stage corresponding to BBCH 10-18 (according to the extended BBCH-scale) were sprayed with the active compound preparations such that particular desired amounts of active compounds are applied per unit area. Spray liquor was diluted with water to arrive at an application volume of 50 to 450 L/ha. At a specified number of days after application (DAA), the degree of damage to the unwanted vegetation is rated in % of plants of unwanted vegetation that were killed, which was assessed by visually controlling the plants.
# Cirsium arvense = experiment: Field trial post-emergence in maize: CIRAR; details: # = 1, g a.c./ha: PYR 300, MES 100, PYR + MES 300 + 90
# Procedure: as §1, §3
# Digitaria sanguinalis [1] = experiment: Field trial post-emergence in maize: DIGSA; details: g a.c./ha: PYR 300, MES 100, PYR + MES 300 + 90
# Procedure: as §1, §3
# Galinsoga parviflora = experiment: Field trial post-emergence in maize: GASPA; details: 31-48 DAA; # = 3; g a.c./ha: PYR 300, MES 100, PYR + MES 300 + 90
# Procedure: as §1, §2
# [2] = tested on: Tripleurospermum inodorum; experiment: Field trial post-emergence in maize: MATIN; details: for herbicidal effect (h.e.): # = 1, g a.c./ha: PYR 300, MES 100, PYR + MES 300 + 90
# Procedure: as §1, §3
# Solanum nigrum [3] = experiment: Field trial post-emergence in maize: SOLNI; details: for herbicidal effect (h.e.): g a.c./ha: PYR 300, MES 100, PYR + MES 300 + 90
# Procedure: as §1, §3
# Sonchus oleraceus = experiment: Field trial post-emergence in maize: SONOL; details: # = 1, g a.c./ha: PYR 300, MES 100, PYR + MES 300 + 90
# Procedure: as §1, §3
# Sorghum halepense = experiment: Field trial post-emergence in maize: SORHA; details: 7-14 DAA; # = 1; g a.c./ha: PYR 300, MES 100, PYR + MES 300 + 90
# Procedure: as §1, §2
# Stellaria media = experiment: Field trial post-emergence in maize: STEME
# Procedure: as §1, §3
# Chenopodium album [4] = experiment: Field trial post-emergence in maize: CHEAL; details: 13-14 DAA, # = 1
# Procedure: as §1, §3
# Sinapis arvensis = experiment: Field trial post-emergence in maize: SINAR; details: 13-14 DAA; # = 1; g a.c./ha: PYR 450, TOP 12.4, PYR + TOP 450 + 12.4
# Procedure: as §1, §2
# Bassia scoparia = experiment: Field trial post-emergence in maize: KCHSC; details: 13-14 DAA; # = 2; g a.c./ha: PYR 450, TEM 38, PYR + TEM 450 + 38
# Procedure: as §1, §2
# Solanum nigrum [5] = experiment: Examples 6-8 herbicidal effect: SOLNI; details: 7 DAA
# Chenopodium album [6] = experiment: Examples 6-8 herbicidal effect: CHEAL; details: 7 DAA
# Lamium amplexicaule = experiment: Example 6 herbicidal effect: LAMAM; details: 7 DAA
# Digitaria sanguinalis [7] = experiment: Examples 6-8 herbicidal effect: DIGSA; details: 7 DAA
# Setaria verticillata = experiment: Examples 6-8 herbicidal effect: SETVE; details: 7 DAA
# Setaria viridis = experiment: Field trial post-emergence in maize: SETVI
# Procedure: as §1, §3
# Example 1 concerns a herbicide composition comprising a combination of pyridate and mesotrione, which was applied post-emergence on unwanted vegetation on a field where maize was cultivated, according to the test conditions mentioned above.
# [8] = g a.c./ha: PYR 10, TEM 22, PYR + TEM 10 + 100
# [9] = g a.c./ha: PYR 300, PYR + MES 300 + 80
# [10] = g a.c./ha: PYR 300, SCT 300, PYR + SCT 300 + 300
# [11] = g a.c./ha: PYR 300, TEM 100, PYR + TEM 300 + 100
# [12] = g a.c./ha: PYR 450, SCT 450, PYR + SCT 300 + 450
# [13] = g a.c./ha: PYR 600, PYR + SCT 600 + 300
# [14] = g a.c./ha: PYR 900, TEM 44, PYR + TEM 900 + 44
structure (smiles),measurement,setting,value
"CCCCCCCCSC(=O)Oc1cc(Cl)nnc1-c1ccccc1 [PYR, (6-chloro-3-phenylpyridazin-4-yl) octylsulfanylformate]",herbicidal effect (h.e.),Abutilon theophrasti,73%
same,herbicidal effect (h.e.),"Capsella bursa-pastoris; 7-14 DAA, # = 3, g a.c./ha: PYR 300, MES 100, PYR + MES 300 + 90",51%
same,PYR h.e.,Capsella bursa-pastoris; CAPBP 14-20 DAA 300 g a.c./ha,59%
same,PYR h.e.,Capsella bursa-pastoris; CAPBP 14-20 DAA 600 g a.c./ha,65%
same,PYR h.e.,Capsella bursa-pastoris; CAPBP 14-20 DAA 900 g a.c./ha,73%
same,PYR h.e.,Capsella bursa-pastoris; CAPBP 24-31 DAA 300 g a.c./ha,53%
same,PYR h.e.,Capsella bursa-pastoris; CAPBP 24-31 DAA 600 g a.c./ha,61%
same,PYR h.e.,Capsella bursa-pastoris; CAPBP 24-31 DAA 900 g a.c./ha,73%
same,herbicidal effect (h.e.),Cirsium arvense; 7-14 DAA,23%
same,herbicidal effect (h.e.),Cirsium arvense; 31-48 DAA,49%
same,herbicidal effect (h.e.),"Digitaria sanguinalis [1]; 7-14 DAA, # = 2",30%
same,herbicidal effect (h.e.),"Digitaria sanguinalis [1]; 18-28 DAA, # = 2",24%
same,herbicidal effect (h.e.),"Digitaria sanguinalis [1]; 31-48 DAA, # = 1",48%
same,herbicidal effect (h.e.),Galinsoga parviflora,40%
same,herbicidal effect (h.e.),[2]; 7-14 DAA,3%
same,herbicidal effect (h.e.),[2]; 18-28 DAA,5%
same,herbicidal effect (h.e.),[2]; 31-48 DAA,5%
same,PYR h.e.,[2]; MATIN 24-31 DAA 300 g a.c./ha,75%
same,PYR h.e.,[2]; MATIN 24-31 DAA 600 g a.c./ha,60%
same,PYR h.e.,[2]; MATIN 24-31 DAA 900 g a.c./ha,55%
same,herbicidal effect (h.e.),"Solanum nigrum [3]; 18-28 DAA, # = 7",58%
same,herbicidal effect (h.e.),"Solanum nigrum [3]; 31-48 DAA, # = 6",55%
same,PYR h.e.,Solanum nigrum [3]; SOLNI 14-20 DAA 300 g a.c./ha,75%
same,PYR h.e.,Solanum nigrum [3]; SOLNI 14-20 DAA 600 g a.c./ha,88%
same,herbicidal effect (h.e.),Sonchus oleraceus; 7-14 DAA,93%
same,herbicidal effect (h.e.),Sonchus oleraceus; 18-28 DAA,51%
same,herbicidal effect (h.e.),Sonchus oleraceus; 31-48 DAA,37%
same,herbicidal effect (h.e.),Sorghum halepense,58%
same,herbicidal effect (h.e.),"Stellaria media; 18-28 DAA, # = 4, g a.c./ha: PYR 300, MES 100, PYR + MES 300 + 90",35%
same,PYR h.e.,Stellaria media; STEME 14-20 DAA 300 g a.c./ha,18%
same,PYR h.e.,Stellaria media; STEME 14-20 DAA 600 g a.c./ha,42%
same,PYR h.e.,Stellaria media; STEME 14-20 DAA 900 g a.c./ha,55%
same,PYR h.e.,Stellaria media; STEME 24-31 DAA 300 g a.c./ha,16%
same,PYR h.e.,Stellaria media; STEME 24-31 DAA 600 g a.c./ha,30%
same,PYR h.e.,Stellaria media; STEME 24-31 DAA 900 g a.c./ha,50%
same,herbicidal effect (h.e.),"Chenopodium album [4]; g a.c./ha: PYR 450, TEM 38, PYR + TEM 450 + 38",49%
same,herbicidal effect (h.e.),"Chenopodium album [4]; g a.c./ha: PYR 450, TOP 12.4, PYR + TOP 450 + 12.4",35%
same,herbicidal effect (h.e.),Sinapis arvensis,57%
same,herbicidal effect (h.e.),Bassia scoparia,66%
same,herbicidal effect (h.e.),Solanum nigrum [5]; [8],0%
same,herbicidal effect (h.e.),Solanum nigrum [5]; [9],11%
same,herbicidal effect (h.e.),Solanum nigrum [5]; [10],10%
same,herbicidal effect (h.e.),Solanum nigrum [5]; [11],10%
same,herbicidal effect (h.e.),Solanum nigrum [5]; [12],10%
same,herbicidal effect (h.e.),Solanum nigrum [5]; [13],28%
same,herbicidal effect (h.e.),Solanum nigrum [5]; [14],100%
same,herbicidal effect (h.e.),Chenopodium album [6]; [8],0%
same,herbicidal effect (h.e.),Chenopodium album [6]; [9],6%
same,herbicidal effect (h.e.),Chenopodium album [6]; [10],3%
same,herbicidal effect (h.e.),Chenopodium album [6]; [11],5%
same,herbicidal effect (h.e.),Chenopodium album [6]; [12],10%
same,herbicidal effect (h.e.),Chenopodium album [6]; [13],22%
same,herbicidal effect (h.e.),Chenopodium album [6]; [14],90%
same,herbicidal effect (h.e.),Lamium amplexicaule; [8],0%
same,herbicidal effect (h.e.),Lamium amplexicaule; [11],5%
same,herbicidal effect (h.e.),Lamium amplexicaule; [14],10%
same,herbicidal effect (h.e.),Digitaria sanguinalis [7]; [8],0%
same,herbicidal effect (h.e.),Digitaria sanguinalis [7]; [9],0%
same,herbicidal effect (h.e.),Digitaria sanguinalis [7]; [10],0%
same,herbicidal effect (h.e.),Digitaria sanguinalis [7]; [11],5%
same,herbicidal effect (h.e.),Digitaria sanguinalis [7]; [12],0%
same,herbicidal effect (h.e.),Digitaria sanguinalis [7]; [13],5%
same,herbicidal effect (h.e.),Digitaria sanguinalis [7]; [14],0%
same,herbicidal effect (h.e.),Setaria verticillata; [8],0%
same,herbicidal effect (h.e.),Setaria verticillata; [9],0%
same,herbicidal effect (h.e.),Setaria verticillata; [10],10%
same,herbicidal effect (h.e.),Setaria verticillata; [11],0%
same,herbicidal effect (h.e.),Setaria verticillata; [12],7%
same,herbicidal effect (h.e.),Setaria verticillata; [13],10%
same,herbicidal effect (h.e.),Setaria verticillata; [14],0%
same,PYR h.e.,Setaria viridis; SETVI 14-20 DAA 300 g a.c./ha,10%
same,PYR h.e.,Setaria viridis; SETVI 14-20 DAA 600 g a.c./ha,20%
same,PYR h.e.,Setaria viridis; SETVI 14-20 DAA 900 g a.c./ha,25%
same,PYR h.e.,Setaria viridis; SETVI 24-31 DAA 300 g a.c./ha,0%
same,PYR h.e.,Setaria viridis; SETVI 24-31 DAA 600 g a.c./ha,0%
same,PYR h.e.,Setaria viridis; SETVI 24-31 DAA 900 g a.c./ha,0%
